Experimental data published in patent US20230201151A1, “FORMULATIONS AND METHODS FOR TREATING ACUTE RESPIRATORY DISTRESS SYNDROME, ASTHMA, OR ALLERGIC RHINITIS” (UNIVERSITY OF FLORIDA RESEARCH FOUNDATION, INC., priority 2020, published 2023).

Tests used:
[1] = test system: HBEC; experiment: Barrier function in IL-13-treated differentiated HBEC, Examples 1-2; format: cell-based, human; conditions: IL-13 20 ng/mL
Protocol: Experimental design: IL-13 treatment with 20 ng/mL media for 4 and 14 days. Ussing chamber experiment in Basic Ringer (5 mM glucose in basolateral side).
To investigate the importance of ENaC during inflammation and explore how its activity is modulated during the evolution of ARDS, the present inventors used primary cultures of human bronchial epithelial cells (HBEC) harvested from normal human lungs, which had been differentiated in vitro in an air-media interphase (air on the apical side and media on the basolateral side) for 30 days. Differentiated HBEC were used for electrophysiology experiments to evaluate the effect of IL-13 on these cells. […] Similarly, IL-13 (20 ng/mL) caused a maximum reduction in barrier function on day 8 of exposure.

[2] = test system: HBECs; experiment: TEER (epithelial barrier function) in differentiated HBECs, Ussing chamber; format: cell-based, human
Protocol: High individual variation in benzamil-sensitive current and TEER in HBECs. In an Ussing chamber-based experimental design, basal short-circuit current (Isc) and transepithelial electrical resistance (TEER) were recorded in differentiated HBECs from two lung donors that were grown on snapwells at an air-liquid interface for 28 to 35 days. Benzamil, a potent ENaC blocker was used to determine ENaC activity by calculating benzamil-sensitive Isc from changes in Isc that occur 15 minutes after adding 6 μM benzamil to the apical side of cells. […] Therefore, normalized data were used for all subsequent experiments for statistical analyses relating to FIGS. 13-18.
Basal treatment with cytokines [IL-13 (Abcam), IL-4 (PeproTech), TNF-α, IFN-γ and TGF-β1 (R&D Systems)] diluted in ALI medium started as early as day 14 post differentiation. Individual cytokines or cytokine cocktails were added to the culture medium at the desired concentrations and cells were incubated with the cytokines for a maximum of 16 days. ALI medium containing cytokines was changed every two days. Age-matched HBECs were assigned to the following treatment groups:
II Time-dependent studies: These studies were done using a concentration that ensured maximum inhibition of benzamil-sensitive Isc and TEER. HBECs were treated with respective cytokines for 2, 4, 6, 8, 10, 12, 14, or 16 days. IFN-γ, TNF-α or TGF-β1 at 1 ng/mL, IL-13 at 20 ng/mL and IL-4 at 2 ng/mL were used.
III Cytokine cocktails: were prepared using IFN-γ and TNF-α at 0.05, 0.5, 2.5, 5 and 10 ng/mL while TNF-α, IFN-γ and TGF-β1 at 1 ng/mL for each of the cytokines was added to the culture media for 7 days.
Ussing chamber experiments: Snapwells with differentiated HBECs that were incubated with cytokines or age-matched HBECs without cytokine exposure were mounted in Ussing chambers (Physiologic Instruments), and cells were either bathed in isotonic ringer solution containing 113.8 mM Na^+, 93.6 mM Cl^−, 25 mM HCO3^−, 5.2 mM K^+, 2.4 mM HPO4^−, 0.4 mM H2PO4^−, 1.2 mM Mg^2+, 1.2 mM Ca^2+, and 75 mM mannitol, or in AA-EC01. Glucose (5 mM) was added to the basal side, and chambers were bubbled with 95% O2 and 5% CO2 at 37° C. AA-EC01 contained 8 mM lysine, 8 mM tryptophan, 8 mM arginine, 8 mM glutamine, and 1.2 mM tyrosine, and AANC contained 8 mM leucine, 8 mM cysteine, 8 mM isoleucine, 8 mM aspartic acid and 8 mM glutamate (Ajinomoto), both diluted in an electrolyte solution containing 113.8 mM Na^t, 93.6 mM Cl^−, 25 mM HCO3^−, 5.2 mM K^+, 2.4 mM HPO4^−, 0.4 mM H2PO4^−, 1.2 mM Mg′, 1.2 mM Ca^2+ and 40 mM mannitol at pH 7.4 and 300 mOsm. Cell cultures were allowed to equilibrate in the Ussing chambers for 30 minutes while continuously voltage clamped to 0 mV. Basal short circuit current (Isc) and transepithelial electrical resistance (TEER) were recorded at 30-second intervals, and benzamil-sensitive Isc was calculated from the difference of basal Isc recorded after 30 minutes and Isc measured at 15 minutes after adding 6 μM of benzamil (ThermoFisher) to the apical side.
Statistical analysis: Results are presented as mean±standard error of mean (SEM). Analyses were performed with OriginPro 2018 software package. For each treatment group, values were tested for normal distribution using the Shapiro-Wilk normality test. […] The values were normalized to controls within the group, and data were pooled for comparison between groups. Kruskal-Wallis test was used for comparing the overall effect of ringer, AA-EC01 and AANC on benzamil-sensitive Isc and TEER, and Mann Whitney U test was used for pairwise comparison within the group and for comparison between basal values for each cytokine at zero ng/mL or day zero with each concentration and time period studied. P<0.05 was considered significant, and NS indicates not significant.

IL-13: Th2 cytokine (Abcam) added to HBEC culture medium
day of maximum reduction in barrier function [1]: 8 days
TEER, normalized to control ([2]; IL-13 2 ng/mL, 14 days): 59.9±7.6%
TEER, normalized to control (maximum reduction) ([2]; IL-13 4 ng/mL, 14 days): 41.3±6.9%
TEER, normalized to control (maximum reduction) ([2]; IL-13 20 ng/mL, day 10): 48.7±3.6%
